The results in this text go back to patent publication US20060148730A1, “Method of treating tuberculosis” (priority 2003, published 2006).

In brackets after ≈: the same amount, converted by molar mass.

The subject of the first assay is M. tuberculosis H37Rv. As to the kind of experiment: MIC vs. M. tuberculosis H37Rv, microplate Alamar Blue assay (MABA). Format: cell-based. To be noted: Mycobacterium tuberculosis, H37RV, Table 4; read-out: MIC.
For the compound `CC[C@H]1OC(=O)[C@H](C)[C@@H](OC2CC(C)(OC)C(O)C(C)O2)[C@H](C)[C@@H](OC2OC(C)CC(N(C)C)C2OC(=O)Nc2ccccc2)[C@](C)(OC)C[C@@H](C)C(=O)[C@H](C)[C@@H](O)[C@]1(C)O` (some centres unmarked) [Compound 3ZZ19], the MIC worked out at 12 µM (≈ 10.4 µg/mL).

The same assay, now with this note: Table 3; parallel-synthesis carbazate library products, SPE purified; read-out: MIC.
`CC[C@H]1OC(=O)[C@H](C)[C@@H](O[C@H]2CC(C)(OC)[C@@H](O)[C@H](C)O2)[C@H](C)[C@@H](O[C@@H]2O[C@H](C)C[C@H](N(C)C)[C@H]2O)[C@](C)(OC)C[C@@H](C)C(=O)[C@H](C)[C@H]2N(NCc3[nH]ncc3Br)C(=O)O[C@]12C` (some centres unmarked) [D1′]: the MIC was determined as 23 µM (≈ 21.8 µg/mL).

As for `CC[C@H]1OC(=O)[C@H](C)[C@@H](O[C@H]2CC(C)(OC)[C@@H](O)[C@H](C)O2)[C@H](C)[C@@H](O[C@@H]2O[C@H](C)C[C@H](N(C)C)[C@H]2O)[C@](C)(OC)C[C@@H](C)C(=O)[C@H](C)[C@H]2N(NCc3c(C(F)(F)F)nn(C)c3Cl)C(=O)O[C@]12C` (some centres unmarked) [D3′], the MIC is listed as 20 µM (≈ 19.7 µg/mL).

Consider `CC[C@H]1OC(=O)[C@H](C)[C@@H](O[C@H]2CC(C)(OC)[C@@H](O)[C@H](C)O2)[C@H](C)[C@@H](O[C@@H]2O[C@H](C)C[C@H](N(C)C)[C@H]2O)[C@](C)(OC)C[C@@H](C)C(=O)[C@H](C)[C@H]2N(NCc3c[nH]nc3-c3ccc(F)cc3)C(=O)O[C@]12C` (some centres unmarked) [D5′], for which the MIC is 25 µM (≈ 24.1 µg/mL).

Turning to `CC[C@H]1OC(=O)[C@H](C)[C@@H](O[C@H]2CC(C)(OC)[C@@H](O)[C@H](C)O2)[C@H](C)[C@@H](O[C@@H]2O[C@H](C)C[C@H](N(C)C)[C@H]2O)[C@](C)(OC)C[C@@H](C)C(=O)[C@H](C)[C@H]2N(NCc3cnn(-c4ccc(F)cc4)c3C)C(=O)O[C@]12C` (some centres unmarked) [D7′], the MIC came to 13 µM (≈ 12.7 µg/mL).

Consider `CC[C@H]1OC(=O)[C@H](C)[C@@H](O[C@H]2CC(C)(OC)[C@@H](O)[C@H](C)O2)[C@H](C)[C@@H](O[C@@H]2O[C@H](C)C[C@H](N(C)C)[C@H]2O)[C@](C)(OC)C[C@@H](C)C(=O)[C@H](C)[C@H]2N(NCc3cccnc3)C(=O)O[C@]12C` (some centres unmarked) [D9′], for which the MIC is recorded as above 15 µM.

Regarding `CC[C@H]1OC(=O)[C@H](C)[C@@H](O[C@H]2CC(C)(OC)[C@@H](O)[C@H](C)O2)[C@H](C)[C@@H](O[C@@H]2O[C@H](C)C[C@H](N(C)C)[C@H]2O)[C@](C)(OC)C[C@@H](C)C(=O)[C@H](C)[C@H]2N(NCc3ccnc4ccccc34)C(=O)O[C@]12C` (some centres unmarked) [D11′], the minimal inhibitory concentration (MIC) is 16 µM (≈ 14.9 µg/mL).

On to `CC[C@H]1OC(=O)[C@H](C)[C@@H](O[C@H]2CC(C)(OC)[C@@H](O)[C@H](C)O2)[C@H](C)[C@@H](O[C@@H]2O[C@H](C)C[C@H](N(C)C)[C@H]2O)[C@](C)(OC)C[C@@H](C)C(=O)[C@H](C)[C@H]2N(NCc3cnccc3NC(=O)C(C)(C)C)C(=O)O[C@]12C` (some centres unmarked) [E2′], for which the MIC is on record as above 27 µM.

For the compound `CC[C@H]1OC(=O)[C@H](C)[C@@H](O[C@H]2CC(C)(OC)[C@@H](O)[C@H](C)O2)[C@H](C)[C@@H](O[C@@H]2O[C@H](C)C[C@H](N(C)C)[C@H]2O)[C@](C)(OC)C[C@@H](C)C(=O)[C@H](C)[C@H]2N(NCc3cccnc3NC(=O)C(C)(C)C)C(=O)O[C@]12C` (some centres unmarked) [E4′], the MIC was above 27 µM.

For the compound `CC[C@H]1OC(=O)[C@H](C)[C@@H](O[C@H]2CC(C)(OC)[C@@H](O)[C@H](C)O2)[C@H](C)[C@@H](O[C@@H]2O[C@H](C)C[C@H](N(C)C)[C@H]2O)[C@](C)(OC)C[C@@H](C)C(=O)[C@H](C)[C@H]2N(/N=C/c3cnc(-c4ccccc4)nc3C)C(=O)O[C@]12C` (some centres unmarked) [E6′], the MIC is given as 5 µM (≈ 4.84 µg/mL).

For the compound `CC[C@H]1OC(=O)[C@H](C)[C@@H](O[C@H]2CC(C)(OC)[C@@H](O)[C@H](C)O2)[C@H](C)[C@@H](O[C@@H]2O[C@H](C)C[C@H](N(C)C)[C@H]2O)[C@](C)(OC)C[C@@H](C)C(=O)[C@H](C)[C@H]2N(NCc3c[nH]c(=O)[nH]c3=O)C(=O)O[C@]12C` (some centres unmarked) [E8′], the MIC is given as above 20 µM.

In the case of `CC[C@H]1OC(=O)[C@H](C)[C@@H](O[C@H]2CC(C)(OC)[C@@H](O)[C@H](C)O2)[C@H](C)[C@@H](O[C@@H]2O[C@H](C)C[C@H](N(C)C)[C@H]2O)[C@](C)(OC)C[C@@H](C)C(=O)[C@H](C)[C@H]2N(NCc3cccn3CCC#N)C(=O)O[C@]12C` (some centres unmarked) [E10′], the MIC amounted to 20 µM (≈ 18.4 µg/mL).

In the case of `CC[C@H]1OC(=O)[C@H](C)[C@@H](O[C@H]2CC(C)(OC)[C@@H](O)[C@H](C)O2)[C@H](C)[C@@H](O[C@@H]2O[C@H](C)C[C@H](N(C)C)[C@H]2O)[C@](C)(OC)C[C@@H](C)C(=O)[C@H](C)[C@H]2N(NCc3cccn3-c3ccc(Cl)cc3)C(=O)O[C@]12C` (some centres unmarked) [E12′], the MIC came to 3.4 µM (≈ 3.32 µg/mL).

`CC[C@H]1OC(=O)[C@H](C)[C@@H](O[C@H]2CC(C)(OC)[C@@H](O)[C@H](C)O2)[C@H](C)[C@@H](O[C@@H]2O[C@H](C)C[C@H](N(C)C)[C@H]2O)[C@](C)(OC)C[C@@H](C)C(=O)[C@H](C)[C@H]2N(NCc3cccn3-c3ccc(C(F)(F)F)cc3)C(=O)O[C@]12C` (some centres unmarked) [F1′]: the MIC amounted to 17.6 µM (≈ 17.8 µg/mL).

In the case of `CC[C@H]1OC(=O)[C@H](C)[C@@H](O[C@H]2CC(C)(OC)[C@@H](O)[C@H](C)O2)[C@H](C)[C@@H](O[C@@H]2O[C@H](C)C[C@H](N(C)C)[C@H]2O)[C@](C)(OC)C[C@@H](C)C(=O)[C@H](C)[C@H]2N(NCc3sc(C)nc3C)C(=O)O[C@]12C` (some centres unmarked) [F5′], the MIC is reported as above 19 µM.

For the compound `CC[C@H]1OC(=O)[C@H](C)[C@@H](O[C@H]2CC(C)(OC)[C@@H](O)[C@H](C)O2)[C@H](C)[C@@H](O[C@@H]2O[C@H](C)C[C@H](N(C)C)[C@H]2O)[C@](C)(OC)C[C@@H](C)C(=O)[C@H](C)[C@H]2N(NCc3nc4ccccc4s3)C(=O)O[C@]12C` (some centres unmarked) [F7′], the MIC was found to be 16 µM (≈ 15 µg/mL).

Regarding `CC[C@H]1OC(=O)[C@H](C)[C@@H](O[C@H]2CC(C)(OC)[C@@H](O)[C@H](C)O2)[C@H](C)[C@@H](O[C@@H]2O[C@H](C)C[C@H](N(C)C)[C@H]2O)[C@](C)(OC)C[C@@H](C)C(=O)[C@H](C)[C@H]2N(NCc3csc(-c4ccccc4)n3)C(=O)O[C@]12C` (some centres unmarked) [F9′], the MIC was 12.6 µM (≈ 12.1 µg/mL).

The assay is the same for the next values; noted with them: Table 5; read-out: MIC.
For `CC[C@H]1OC(=O)[C@H](C)[C@@H](O)[C@H](C)[C@@H](O[C@@H]2O[C@H](C)C[C@H](N(C)C)[C@H]2O)[C@](C)(OC)C[C@@H](C)C(=NOCCc2ccccc2)[C@H](C)[C@@H](O)[C@]1(C)O` [Compound 2GY7], the MIC turned out to be 16 µM (≈ 11.3 µg/mL).

As to `CCC1OC(=O)C(C)C(O)C(C)C(OC2OC(C)CC([N+](C)(C)Cc3ccccc3)C2OCc2ccccc2)C(C)(OC)CC(C)C(=NOCc2ccccc2)C(C)C(O)C1(C)O` (centres unmarked) [Compound 2GY11], the MIC is on record as 7.1 µM.

With `CCC1OC(=O)C(C)C(OCc2ccccc2)C(C)C(OC2OC(C)CC([N+](C)(C)Cc3ccccc3)C2OCc2ccccc2)C(C)(OC)CC(C)C(=NOCc2ccccc2)C(C)C(O)C1(C)O` (centres unmarked) [Compound 2GY12], the MIC is reported as 6.3 µM.

Take `CC[C@H]1OC(=O)[C@H](C)[C@@H](O)[C@H](C)[C@@H](O[C@@H]2O[C@H](C)C[C@H](N(C)C)[C@H]2O)[C@](C)(OC)C[C@@H](C)C(=NOCCCc2ccccc2)[C@H](C)[C@@H](O)[C@]1(C)O` [Compound 2GY15]: the MIC amounted to 6.3 µM (≈ 4.55 µg/mL).

Regarding `CCC1OC(=O)C(C)C(OC2CC(C)(OC)C(O)C(C)O2)C(C)C(OC2OC(C)CC(N(C)C)C2OC(=S)Nc2ccccc2)C(C)(O)CC(C)C(=NOCOCCOC)C(C)C(O)C1(C)O` (centres unmarked) [Compound 3ZZ59b], the MIC is on record as 5.6 µM (≈ 5.44 µg/mL).

As to `CCC1OC(=O)C(C)C(OC2CC(C)(OC)C(O)C(C)O2)C(C)C(OC2OC(C)CC(N(C)C)C2OC(=S)Nc2ccccc2)C(C)(OC)CC(C)C(=O)C(C)C(O)C1(C)O` (centres unmarked) [Compound 3ZZ61b], the MIC is on record as 7.3 µM (≈ 6.45 µg/mL).

The term MIC denotes the lowest concentration found to suppress growth.
